Measurements: PMC4757417, “Functional and Structural Analysis of a β-Glucosidase Involved in β-1,2-Glucan Metabolism in Listeria innocua” (PLoS ONE, 2016)
Like-named read-outs stand apart in the source and are kept apart here.

How the values were obtained:
Lin1840r [1] = target: T1, Lin1840r (Listeria innocua, UniProt Q92AS9); test: Inhibition kinetics of hydrolytic activity toward pNP-β-Glc; format: biochemical; conditions: substrate pNP-β-Glc
[2] = target: Aspergillus aculeatus BGL1 (AaBGL1); set-up: method as in PMID 23537284; conditions: cited from earlier work
Lin1840r [3] = target: T1, Lin1840r; test: Kinetic analysis of hydrolysis of β-linked gluco-oligosaccharides and pNP-β-Glc by WT Lin1840r; format: biochemical; conditions: for specific activity: Lin1840r, 0.1 mM substrate at 20°C; for kcat relative to that for Sop2 / kcat relative to those for Sop2 and Lam2 / kcat/Km relative to that for Sop2: WT Lin1840r
Lin1840r D270A mutant = test: Hydrolytic activity of D270A mutant toward pNP-β-Glc
Lin1840r E473A mutant = test: Hydrolytic activity of E473A mutant toward pNP-β-Glc
[4] = system: Flavobacterium meningosepticum GH3 β-glucosidase (FmBGL); set-up: method as in PMID 11851422; conditions: cited from earlier work
[5] = system: JMB19063 (metagenomic GH3 β-glucosidase from compost); set-up: method as in PMID 23580647; conditions: 0.1 mM substrate, Cel2 at 50°C, estimated from the substrate consumption; cited from earlier work

T1 sequence (Q92AS9 entry or part of it): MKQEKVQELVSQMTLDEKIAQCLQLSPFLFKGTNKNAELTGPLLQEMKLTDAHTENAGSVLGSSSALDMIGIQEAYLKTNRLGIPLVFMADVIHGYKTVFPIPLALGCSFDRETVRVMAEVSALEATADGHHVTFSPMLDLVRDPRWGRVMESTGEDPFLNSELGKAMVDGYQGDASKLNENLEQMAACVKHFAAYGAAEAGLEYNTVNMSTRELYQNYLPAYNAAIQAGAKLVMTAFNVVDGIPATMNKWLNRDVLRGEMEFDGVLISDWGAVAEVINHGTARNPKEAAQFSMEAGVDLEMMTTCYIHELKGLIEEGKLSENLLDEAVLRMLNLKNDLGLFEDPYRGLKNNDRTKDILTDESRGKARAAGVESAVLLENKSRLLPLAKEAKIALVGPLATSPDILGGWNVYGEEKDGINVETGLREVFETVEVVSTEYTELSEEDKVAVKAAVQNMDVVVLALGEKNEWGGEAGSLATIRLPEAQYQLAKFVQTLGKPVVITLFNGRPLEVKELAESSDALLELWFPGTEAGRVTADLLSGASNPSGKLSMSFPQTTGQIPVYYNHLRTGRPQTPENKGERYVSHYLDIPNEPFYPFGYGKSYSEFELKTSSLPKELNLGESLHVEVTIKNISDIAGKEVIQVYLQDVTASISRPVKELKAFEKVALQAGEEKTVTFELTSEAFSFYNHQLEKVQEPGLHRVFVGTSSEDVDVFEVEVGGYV

For `OC[C@H]1CNC[C@@H](O)[C@@H]1O` [IFG, isofagomine D-tartrate], the Ki (Lin1840r [1]; read-out: Ki) is listed as 4.1 µM and the Ki [2] is listed as 14 µM.

In the case of `OC[C@H]1NC[C@H](O)[C@@H](O)[C@@H]1O` [DNJ, 1-deoxynojirimycin], the Ki (Lin1840r [1]; Ki) is given as 290 µM and the Ki [2] is given as 2.4 µM.

In the case of `O=[N+]([O-])c1ccc(O[C@@H]2O[C@H](CO)[C@@H](O)[C@H](O)[C@H]2O)cc1` [pNP-β-Glc, p-nitrophenyl-β-D-glucopyranoside], the specific activity (Lin1840r [3]) is reported as 1.12 U/mg, the hydrolytic activity (Lin1840r D270A mutant) is reported as “no detectable hydrolytic activity” and the hydrolytic activity (Lin1840r E473A mutant) is reported as “no detectable hydrolytic activity”. The Km [4] was 490 µM, the kcat [4] was 39.1 s⁻¹ and the specific activity [5] was 11.8 U/mg.

For `OC[C@H]1O[C@@H](O[C@H]2[C@H](O[C@H]3[C@H](O[C@H]4[C@H](O[C@H]5C(O)O[C@H](CO)[C@@H](O)[C@@H]5O)O[C@H](CO)[C@@H](O)[C@@H]4O)O[C@H](CO)[C@@H](O)[C@@H]3O)O[C@H](CO)[C@@H](O)[C@@H]2O)[C@H](O)[C@@H](O)[C@@H]1O` (stereo partly shown) [Sop5], the “kcat relative to that for Sop2” value (Lin1840r [3]) was “less than one-tenth”.

For cellobiose [Cel2], the specific activity (Lin1840r [3]) was 8.9 × 10^−4 U/mg, the “kcat relative to those for Sop2 and Lam2” value (Lin1840r [3]) was “less than 1%” and the “kcat/Km relative to that for Sop2” value (Lin1840r [3]) was “less than 0.05%”. For the same compound, the “activity lower than toward pNP-β-Glc” value ([4]; judged from preliminary results) was “at least 100 times” and the specific activity [5] was 0.077 U/mg.

In the case of `OC[C@H]1O[C@@H](O[C@H]2[C@H](O[C@H]3[C@H](O[C@H]4C(O)O[C@H](CO)[C@@H](O)[C@@H]4O)O[C@H](CO)[C@@H](O)[C@@H]3O)O[C@H](CO)[C@@H](O)[C@@H]2O)[C@H](O)[C@@H](O)[C@@H]1O` (stereo partly shown) [Sop4], the “kcat relative to that for Sop2” value (Lin1840r [3]) is reported as “less than one-tenth”.

With gentiobiose [Gen2] the “kcat relative to those for Sop2 and Lam2” value (Lin1840r [3]) was “less than 1%” and the “kcat/Km relative to that for Sop2” value (Lin1840r [3]) was “less than 0.05%”.
